Results published in patent publication US8598084B2, “Synergistic herbicide/insecticide composition containing certain pyridine carboxylic acids and certain insecticides” (priority 2010, dated 2013).
“And” between values parts separate entries of the source, which are not always exact repeats. Equal entries are not always repeated.

What was measured:
Type in all cases: in vivo
[1] = tested on: barley (Hordeum vulgare L; HORVS); assay: Postemergence crop injury and safening, greenhouse, visual injury vs control
Method: (§1) Evaluation of Postemergence Herbicidal Activity of Mixtures in Cereal Crops
(§2) Seeds of the desired test plant species were planted in Sun Gro MetroMix® 306 planting mixture, which typically has a pH of 6.0 to 6.8 and an organic matter content of about 30 percent, in plastic pots with a surface area of 103.2 square centimeters (cm^2). When required to ensure good germination and healthy plants, a fungicide treatment and/or other chemical or physical treatment was applied. The plants were grown for 7-36 days (d) in a greenhouse with an approximate 14 hour (h) photoperiod which was maintained at about 18° C. during the day and 17° C. during the night. Nutrients and water were added on a regular basis and supplemental lighting was provided with overhead metal halide 1000-Watt lamps as necessary. The plants were employed for testing when they reached the second or third true leaf stage.
(§3) Treatments consisted of an insecticidal compound (as listed in Tables 1 through 18) and the cereal herbicide, 4-amino-3-chloro-6-(4-chloro-2-fluoro-3-methoxyphenyl)pyridine-2-carboxylic acid, alone and in combination. Weighed amounts of esters (methyl) or salts (triethylammonium, TEA) of 4-amino-3-chloro-6-(4-chloro-2-fluoro-3-methoxyphenyl)pyridine-2-carboxylic acid (Compound I) were placed in 25 milliliter (mL) glass vials and dissolved in a volume of 97:3 volume per volume (v/v) acetone/dimethyl sulfoxide (DMSO) to obtain 4.5 milligrams active ingredient per mL (mg ai/mL) concentrated solutions. […] The concentrated solutions of Compound I were diluted to 1.5 mg ai/mL with the addition of 2 volumes of an aqueous mixture containing acetone, water, isopropyl alcohol, DMSO, Agri-dex crop oil concentrate, and Triton® X-77 surfactant in a 64.7:26.0:6.7:2.0:0.7:0.01 v/v ratio. A dilution solution was prepared by mixing 1 volume of 97:3 v/v acetone/DMSO and 2 volumes of an aqueous mixture containing acetone, water, isopropyl alcohol, DMSO, Agri-dex crop oil concentrate, and Triton® X-77 surfactant in a 64.7:26.0:6.7:2.0:0.7:0.01 v/v ratio. Compound requirements are based upon a 12 mL application volume at a rate of 187 liters per hectare (L/ha). The concentrated solutions of the cereal insecticides were prepared following the same procedure. Weighed amounts of insecticide were placed in 25 milliliter (mL) glass vials and dissolved in a volume of 97:3 v/v acetone/DMSO to obtain concentrated insecticide solutions. The concentrated solutions of the safener were prepared following the same procedure. Weighed amounts of safener were placed in 25 mL glass vials and dissolved in a volume of 97:3 v/v acetone/DMSO to obtain concentrated safener solutions. The concentrated solutions were diluted to 0.75 mg/mL with an aqueous mixture of 1.5% v/v of Agri-dex crop oil concentrate.
(§4) Spray solutions of the cereal herbicide and the insecticidal compound mixtures were prepared by adding the concentrated solutions to the appropriate amount of dilution solution to form 12 mL spray solution with active ingredients in combinations. Spray solutions of the cereal herbicide, herbicide safener and the insecticidal compound mixtures were prepared by adding the concentrated solutions to the appropriate amount of dilution solution to form 12 mL spray solution with active ingredients in combinations. Formulated compounds were applied to the plant material with an overhead Mandel track sprayer equipped with 8002E nozzles calibrated to deliver 187 L/ha over an application area of 0.503 square meters (m^2) at a spray height of 18 inches […] above average plant canopy. Control plants were sprayed in the same manner with the solvent blank.
(§5) The treated plants and control plants were placed in a greenhouse as described above and watered by sub-irrigation to prevent wash-off of the test compounds. […]

[2] = tested on: wheat (Triticum aestivum L; TRZAS); assay: as above
Method: as §1, §2, §3, §4, §5

[3] = tested on: redroot pigweed (Amaranthus retroflexus L; AMARE); assay: Postemergence herbicidal activity of mixtures, greenhouse, visual injury vs control; conditions: 17.5 g/ha alone
Method: as §1, §2, §3, §4, §5

[4] = tested on: wild pansy (Viola tricolor L; VIOTR); assay: as above
Method: as §1, §2, §3, §4, §5

[5] = tested on: Russian thistle (Salsola iberica L; SASKR); assay: as above
Method: as §1, §2, §3, §4, §5

[6] = tested on: bird's-eye speedwell (Veronica persica L; VERPE); assay: as above; conditions: Veronica persica, post-emergence, read-out: Ob (observed injury);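 further: visual score 0 means no injury and 100 means complete kill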
Method: as §1, §2, §3, §4, §5

[7] = tested on: Canada thistle (Cirsium arvense L; CIRAR); assay: as above; conditions: 17.5 g/ha alone
Method: as §1, §2, §3, §4, §5

[8] = tested on: scented mayweed (Matricaria chamomila L; MATCH); assay: as above
Method: as §1, §2, §3, §4, §5

[9] = tested on: kochia (Kochia scoparia L; KCHSC); assay: as above
Method: as §1, §2, §3, §4, §5

[10] = application rate g/ha: Compound I methyl ester 35, Malathion 0, Cloquintocet 0

COC(=O)c1nc(-c2ccc(Cl)c(OC)c2F)cc(N)c1Cl [Compound I Methyl ester, 4-amino-3-chloro-6-(4-chloro-2-fluoro-3-methoxyphenyl)pyridine-2-carboxylic acid methyl ester]
Ob (observed injury) ([1]; 35 g/ha alone, crop injury): 28% and 32% | HORVS Ob [1, 10]: 32 | Ob (observed injury) ([2]; 35 g/ha alone, crop injury): 39% and 41% | TRZAS Ob [2, 10]: 41 | Ob (observed injury) [3]: 90% | pest or weed control at 8.75 g/ha ([4]; Viola tricolor, post-emergence, 8.75 g/ha alone, read-out: Ob (observed injury)): 36% | pest or weed control at 17.5 g/ha ([4]; Viola tricolor, post-emergence, 17.5 g/ha alone, read-out: Ob (observed injury)): 44% | pest or weed control at 35 g/ha ([4]; Viola tricolor, post-emergence, 35 g/ha alone, read-out: Ob (observed injury)): 56% | VIOTR Ob [4, 10]: 56 | pest or weed control at 8.75 g/ha ([5]; Salsola tragus, post-emergence, 8.75 g/ha alone, read-out: Ob (observed injury)): 71% | pest or weed control at 17.5 g/ha ([5]; Salsola tragus, post-emergence, 17.5 g/ha alone, read-out: Ob (observed injury)): 81% | pest or weed control at 35 g/ha ([5]; Salsola tragus, post-emergence, 35 g/ha alone, read-out: Ob (observed injury)): 89% | SASKR Ob [5, 10]: 89 | pest or weed control at 8.75 g/ha ([6]; 8.75 g/ha alone): 36% | pest or weed control at 17.5 g/ha ([6]; 17.5 g/ha alone): 47% | pest or weed control at 35 g/ha ([6]; 35 g/ha alone): 73% | Ob (observed injury) [7]: 62% | pest or weed control at 8.75 g/ha ([8]; Matricaria, post-emergence, 8.75 g/ha alone, read-out: Ob (observed injury)): 67% | pest or weed control at 17.5 g/ha ([8]; Matricaria, post-emergence, 17.5 g/ha alone, read-out: Ob (observed injury)): 80% | pest or weed control at 35 g/ha ([8]; Matricaria, post-emergence, 35 g/ha alone, read-out: Ob (observed injury)): 88% | MATCH Ob [8, 10]: 88 | pest or weed control at 8.75 g/ha ([9]; Bassia scoparia, post-emergence, 8.75 g/ha alone, read-out: Ob (observed injury)): 79% | pest or weed control at 17.5 g/ha ([9]; Bassia scoparia, post-emergence, 17.5 g/ha alone, read-out: Ob (observed injury)): 88% | pest or weed control at 35 g/ha ([9]; Bassia scoparia, post-emergence, 35 g/ha alone, read-out: Ob (observed injury)): 97% | KCHSC Ob [9, 10]: 97
